Active and inactive are the calls of the source. The calls are words filed in the database; no cut-off is given here.
What was measured:
[1] = system: Vigna mungo; assay: Root formation-promoting activity in Vigna mungo (black gram) cuttings at 1 x 10^-4 M relative to IBA (reference value: 35 +/- 8%); type: functional
[2] = system: Vigna mungo; assay: Induction of callus formation on Vigna mungo (black gram) seedlings at 3 x 10^-5 M after 3 days; type: functional, organism-based
[3] = system: Vigna mungo; assay: Enhancement of lateral root formation in intact Vigna mungo (black gram) seedlings at 3 x 10^-6 M; type: functional, organism-based
[4] = system: Vigna mungo; assay: Enhancement of hypocotyl swelling in intact Vigna mungo (black gram) seedlings at 3 x 10^-6 M; type: functional, organism-based
[5] = system: Brassica rapa subsp. pekinensis; assay: Relative growth inhibitory activity of Brassica rapa subsp. pekinensis (Chinese cabbage) hypocotyl at 1 x 10^-7 to 1 x 10^-4 M
[6] = system: Vigna mungo; assay: Enhancement of lateral root formation in intact Vigna mungo (black gram) seedlings at 1 x 10^-6 M; type: functional, organism-based
[7] = system: Vigna mungo; assay: Enhancement of hypocotyl swelling in intact Vigna mungo (black gram) seedlings at 1 x 10^-6 M; type: functional, organism-based
[8] = system: Vigna mungo; assay: Ratio of compound activity to IBA activity for root formation-promoting activity in Vigna mungo (black gram) cuttings at 1 x 10^-4 M; type: functional
[9] = system: Vigna mungo; assay: Induction of callus formation on Vigna mungo (black gram) seedlings at > 3 x 10^-3 M after 3 days; type: functional, organism-based
[10] = system: Vigna mungo; assay: Enhancement of lateral root formation in intact Vigna mungo (black gram) seedlings at 3 x 10^-4 M; type: functional, organism-based
[11] = system: Brassica rapa subsp. pekinensis; assay: Ratio of IAA activity to compound activity for growth inhibition of Brassica rapa subsp. pekinensis (Chinese cabbage) hypocotyl at 1 x 10^-7 to 1 x 10^-4 M; type: functional
[12] = system: Vigna mungo; assay: Enhancement of hypocotyl swelling in intact Vigna mungo (black gram) seedlings at 3 x 10^-4 M; type: functional, organism-based
[13] = system: Brassica rapa subsp. pekinensis; assay: Growth inhibition of Brassica rapa subsp. pekinensis (Chinese cabbage) hypocotyl at 1 x 10^-7 to 1 x 10^-4 M; type: functional
[14] = system: Vigna mungo; assay: Enhancement of lateral root formation in intact Vigna mungo (black gram) seedlings at 1 x 10^-4 M; type: functional, organism-based
[15] = system: Vigna mungo; assay: Enhancement of hypocotyl swelling in intact Vigna mungo (black gram) seedlings at 1 x 10^-4 M; type: functional, organism-based

Cc1cccc2[nH]cc(CC(=O)O)c12 was tested, and the Activity [1] was 70%, the Activity [2] was “Active” and the Activity [3] was “Active”. The Activity [4] was “Active” and the “relative activity (%)” value [5] was 40%.

Compound O=C(O)CCCc1c[nH]c2ccccc12 has an Activity [1] of 100%.

With O=C(O)Cc1c[nH]c2cccc(Cl)c12 the Activity [1] was 384%, the Activity [2] was “Active” and the Activity [6] was “Active”. The Activity [7] was “Active” and the “relative activity (%)” value [5] was 6%.

In the case of O=C(O)Cc1c[nH]c2cccc(C(F)(F)F)c12, the Activity [1] was 156%, the Ratio [8] was 1.5 and the Activity [9] was “Active”. The Activity [10] was “Active”, the Ratio [11] was 6 and the Activity [12] was “Active”. For the same compound, the “growth inhibition (GI)” value [13] was “Active”.

With O=C(O)Cc1c[nH]c2ccccc12 [INDOLE-3-ACETIC ACID] the Activity [1] was 36%, the Activity [14] was “Active” and the Activity [15] was “Active”.
